| melting point [°C] | Compound |
| --- | --- |
| 138 to 140 | O=C(CC(c1ccccc1)c1ccccc1)NC(Cc1ccccc1)C(=O)O (stereo not given) |
| 153 to 174 | CC(=O)OC1CSC(Oc2cncc(-c3ccncc3C)c2)C(OC(C)=O)C1OC(C)=O (stereo not given) |
| 53 to 54 | CC(C)N1CC2CC(C1)CN(C(C)(O)c1ccc(F)cc1)C2 (stereo not given) |
| 178 | N=C(N)c1cc2cc(F)c(F)cc2o1 |
| 121 to 123 | CNc1ccc(-c2ncn(-c3ccc(OC(F)(F)F)cc3)n2)cc1 |
| 120 | COc1ccc(C2CNC(=O)C2)cc1OC (stereo not given) |
| 189 to 191 | CCCc1cc(O)ccc1-c1noc2cc(O)ccc12 |
| 238 to 240 | NC(=O)c1ccc(-c2ccc3nnn(Cc4ccc5ncsc5c4)c3n2)cc1Cl |
| 134 to 136 | COc1ccccc1NC(=O)Nc1ccc(N2CCN(C(=O)Nc3ccc(OCCO)cc3Cl)CC2)cc1 |
| 35.5 | CCCCCCOc1ccc(C=[N+]([O-])C(C)(C)C)cc1OCC |
| 218 to 220 | CC(=O)Nc1nc(CCc2ccc(NC3=NCCS3)cc2)cs1 |
| 106 to 107 | CCOC(=O)c1ncoc1-c1ccc([N+](=O)[O-])cc1OC |
| 177 to 178 | NC(=NOC(=O)c1ccccc1)c1nc(Cl)c(Cl)[nH]1 |
| 122 to 127 | [N-]=[N+]=NS(=O)(=O)c1cccc(C(=O)O)c1 |
| 82 to 83 | CC(=O)NCCCc1c(Cl)ccc2occc12 |
| 107 to 108 | CC(C)c1cc(C(C)C)c(NC(=O)CN2CCN(CCCSc3nc4ccccc4s3)CC2)c(C(C)C)c1 |
| > 285 | Cc1ccc(Nc2nc(-c3ccccc3)c(C(=O)c3sc(Nc4ccc(C)cc4)nc3-c3ccccc3)s2)cc1 |
| 177 | CC(C)c1cccc2c1C(=O)NS2(=O)=O |
| 221 to 226 | O=C(NC1CC1)c1ccccc1C(c1ccc(O)cc1)c1ccc(O)cc1 |
| 242 | CCOC(=O)c1ccc(N2CCN(Cc3cnc4c(c3)NC(=O)[C@@H]3CCCN43)CC2)cc1 |
| 225 | N#CNc1nc2c(s1)Cc1cc(Cl)ccc1-2 |
| 262 to 264 | O=C(Nc1ccc(Cl)cc1Cl)c1cc(Cl)c(Cl)[nH]1 |
| 170 to 172 | COC(=O)c1ccc2c(c1)C(=O)CCC2 |
| 102 | C#Cc1ccc(NC(=O)OC(C)(C)C)c([N+](=O)[O-])c1 |
| 183 to 185 | Nc1ccc(-c2nc(-c3ccco3)no2)cc1 |

| melting point [°C] | Compound |
| --- | --- |
| 79 to 81 | N#CC(CCC1C2CCN1CC2)(c1ccccc1)c1ccccc1 (stereo not given) |
| 89 to 90 | COc1ccccc1[Si](C)(C)COc1cc(C(C)(C)C)c(O)c(C(C)(C)C)c1 |
| 268 to 270 | O=c1[nH]c2ccc(C(F)(F)F)cc2c(-c2cc(Cl)ccc2O)c1NS(=O)(=O)C(F)(F)F |
| 151 to 154 | CCCCOC(=O)NC(=O)C1c2ccccc2Sc2ccccc21 |
| 126 to 130 | Cc1ccc(C=CCN2CCc3nc(N)sc3CC2)cc1 |
| 145 to 148 | CC1Cc2c(N3C(=O)C4CCCCN4C3=O)ccc(Cl)c2O1 (stereo not given) |
| 179 to 180 | COCOc1ccccc1-c1cc(-c2cccc(C(=O)O)c2)c(C#N)c(NC(=O)c2cccs2)n1 |
| 159 to 160 | CC(C)(C)C(=O)c1c[nH]nc1N |
| 121 to 122 | COc1ccc(C(=O)N2CC[C@@H](O)C2=O)cc1 |
| > 300 | Cc1nc(NC(=O)Nc2ccccc2)sc1C(=O)NCc1ccccc1 |
| 125 to 150 | Cc1cc(Nc2ccnc(Nc3ccc(S(=O)(=O)N(C)C4CCN(Cc5cnn(C)c5)CC4)cc3)n2)ccc1F |
| 260 to 265 | O=c1[nH]c2cc(Cl)cc(Cl)c2c(=O)n1Cc1ccccc1 |
| 188 | N=C(NO)c1ccnc(N)c1 |
| 150 to 152 | COc1ccc2c(c1)C(=O)C(n1ccnc1)CO2 (stereo not given) |
| 63 | CC#CCOc1ccc(S(=O)(=O)C(CCCCCC#N)C(=O)OCC)cc1 (stereo not given) |
| 129 to 130 | COCC1CN(Cc2cc(OC)c(OC)c(OC)c2)CCN1C(=O)c1cn2ccccc2n1 (stereo not given) |
| 209 to 211 | CN(Cc1ccc(NC(=O)C2=Cc3cc(-c4ccc(OCC(=O)OC(C)(C)C)cc4)ccc3S(=O)(=O)CC2)cc1)C1CCOCC1 |
| 132 to 133 | CCCn1c(=O)c(-c2ccccc2)c2n(c1=O)CCCS2 |
| 134 to 135 | COC=C(C(=O)OC)c1csc2ccc(C=O)cc12 |
| 139 | O=[N+]([O-])C1=Cc2cc3c(cc2OC1)OCO3 |
| 183 to 185 | CC1(C)C=Cc2cc(C(=O)NCCN3C(=O)c4ccccc4C3=O)ccc2O1 |
| 95 | CN(CCCCCCNC(=O)NCCSCc1csc(NC(=N)N)n1)CCN(Cc1ccc(F)cc1)c1ccccn1 |
| 124 to 126 | O=C1N(Cc2ccc(-c3ccccc3C(F)(F)F)o2)c2ccccc2C12COc1cc3c(cc12)OCOC3 (stereo not given) |
| 140 to 145 | CC(=O)Nc1ccc(-c2cccc(-c3nc(C(C)C)[nH]c3-c3cccc(C)n3)c2)cc1 |
| 155 to 158 | COc1ccccc1N1CCN(Cc2ccccc2CCC(=O)O)CC1 |

| melting point [°C] | Compound |
| --- | --- |
| 129 to 132 | CCSc1sc(C(=O)N2CCCC2)c2c1C(=O)CC(C)(C)C2 |
| 167 to 168 | Cc1cc(O)ccc1C(=O)N1CCN(C)CC1 |
| 116 to 118 | COc1ccccc1N1CCN(CC(O)COc2ccccc2C=C=O)CC1 (stereo not given) |
| 186 to 187 | CCOCc1nc2c(N)nc3cc(OCc4ccccc4)ccc3c2n1CC1COC(C)(C)O1 (stereo not given) |
| 164 to 166 | CN(C(=O)c1ccc(-n2cccn2)cc1)C1CCN(C(=O)OC(C)(C)C)CC1 |
| 130 | CSC1C(=O)Nc2c(C(=O)c3ccccc3)cccc21 (stereo not given) |
| 155 to 158 | Cn1nc(-c2ccc(F)cc2)c(-c2ccncc2)c1N |
| 148 to 157 | O=C(NC(Cc1ccccc1)C(=O)C(F)(F)F)c1ccccc1 (racemic) |
| 127 to 129 | Nc1ccc(C(=O)CCc2ccc(Cl)c(Cl)c2)cc1 |
| 233 to 235 | COc1ccc(Nc2ncc3cc(-c4c(Cl)cccc4Cl)c(=O)n(C)c3n2)cn1 |
| 209 | CC(C)CN(CC(C)C)S(=O)(=O)N[C@@H](Cc1ccc(NC(=O)c2c(Cl)cncc2Cl)cc1)C(=O)O |
| 63 to 65 | COc1ccc(C=C2c3ccccc3C(=O)c3ccccc32)cc1OCC(=O)N1CCC(CO[N+](=O)[O-])CC1 |
| 145 to 147 | CCN(CC)CCCNc1nnc(COC)c2c1cc1n2CCCC1 |
| 51 | CCC(Cc1ccc(OCCN2CCOCC2)cc1)(C(=O)NO)S(=O)(=O)c1ccc(OC)cc1 (stereo not given) |
| 255 to 260 | CS(=O)(=O)OCCn1c2ccc(O)cc2c2c3c(c(-c4c(Cl)cccc4Cl)cc21)C(=O)NC3=O |
| 162 to 163 | CCOC(=O)C1=C(C)NC(CO)=C(C(=O)OCC)C1c1cccc(O)c1 (stereo not given) |
| 200 | CCOP(=O)(OCC)Oc1c(C2CCCCN2CCCCNC(=O)c2ccc(NC(=O)c3ccc(Cl)cc3)cc2)ccc2c1CCCC2 (stereo not given) |
| 106 to 107 | C=C(C)CN1C(=O)c2ccccc2Oc2ncccc21 |
| 114 to 116 | COC1(c2ccc(C)cc2)CCC(=NO)CC1 (stereo not given) |
| 170 to 172 | CC(NC(=O)C=Cc1ccc(Cl)cc1)c1ccc(NS(C)(=O)=O)c(F)c1 (stereo not given) |
| 122 | Nc1cccnc1Nc1ccccc1C(=O)c1ccc(F)cc1 |
| 196 to 201 | COc1ccnc(OC)c1CON=C(C#N)c1cc(C)cc(C)n1 |
| 116 to 118 | Fc1cccc2c(OCCc3ccc(Oc4ccc(C(F)(F)F)cn4)cc3)ncnc12 |
| 86 to 87 | C=C1C(=O)c2ccccc2OC1c1ccc(Cl)cc1Cl (stereo not given) |
| 248 to 250 | CCCCCCCC(=O)Oc1nc2c(N)ncnc2n1Cc1ccccc1 |

| melting point [°C] | Compound |
| --- | --- |
| 176 to 177 | Cc1c(Br)c2c(c(C)c1NC(=O)OC(C)(C)C)CCO2 |
| > 250 | CC1(C)C(=O)Nc2ccc(C(=O)O)cc21 |
| 124 to 128 | Cc1cn(C)c(C)c1-c1ccnc(Nc2ccc(F)cc2)n1 |
| 97 to 99 | COC(=O)C1C=CCN2C(=O)C(C)(CCO)C(=O)N12 (stereo not given) |
| 128 to 129 | OC(COCc1ncc[nH]1)c1ccc2sccc2c1 (stereo not given) |
| 239 to 241 | O=c1cc2c(nn1-c1ccc(Cl)cc1)-c1cc(Cl)ccc1S(=O)CC2 (stereo not given) |
| 148 to 150 | CCOC(=O)c1c(N)nc(-c2ccc([N+](=O)[O-])cc2)c([N+](=O)[O-])c1C(=O)OCC |
| 115 to 116 | COc1cccc(CCCCCCOc2ccc(C(=O)O)c(O)c2)c1OC |
| 164 to 166 | O=c1oc(=O)n(-c2cccc(F)c2)c2ncccc12 |
| 222 to 225 | CC(=O)NC1=NN(c2cccc(C)c2)CC1 |
| 191 to 193 | CC1(C)Oc2ccc(CN)cc2[C@@H](N2CCCC2=O)[C@@H]1O (relative stereo) |
| 146 to 148 | CCOC(=O)N1CCN(c2nc(C)nc3c2OCC(=O)N3CC(O)CO)CC1 (stereo not given) |
| 106 to 107 | Cc1ccnc2c1C(=O)CC(c1ccc(F)cc1F)C2 (stereo not given) |
| 194 to 197 | O=C(/C=C/c1cc(O)c(O)c([N+](=O)[O-])c1)CCCCC(=O)Nc1ccc(C(F)(F)F)cc1 |
| 122 to 124 | Cc1cccc2c1N(C)CS2=O (stereo not given) |
| 84 to 86 | CCOC(=O)CCCCc1cn(C(c2ccccc2)(c2ccccc2)c2ccccc2)cn1 |
| 171 to 173 | Nc1nc(NC2CCCCCCC2)c2ncn(C3C=CC(CO)C3)c2n1 (stereo not given) |
| 201 to 202 | O=C(NCC(C(=O)Nc1n[nH]c(=S)s1)c1ccccc1)OCc1ccccc1 (stereo not given) |
| 118 to 120 | CC(C)(C)OC(=O)CN1C(=O)C(NC(=O)OCc2ccccc2)C1CCC(=O)O (stereo not given) |
| 155 to 156 | O=C(/C=C/C=C(c1ccc(F)cc1)c1ccc(F)cc1)NCCCCc1cccnc1 |
| 183 to 185 | NS(=O)(=O)c1cc(C(=O)c2ccccc2)ccc1Cl |
| 164 to 165 | CN1CCc2c(sc(N)c2C(=O)c2ccccc2)C1 |
| 56 to 57 | CCCCCCCCCCCCCCOc1ccc(CC(=O)Cl)cc1OC |

| Compound | melting point [°C] |
| --- | --- |
| CCCC(CCC)C(=O)OC1N=C(c2ccccc2Cl)c2cc(Cl)ccc2NC1=O (stereo not given) | 191 to 193 |
| NC(=O)C1(c2ccccc2)CCN(CCC2(c3ccc(Cl)c(Cl)c3)CCN(C(=O)c3ccccc3)C2)CC1 (stereo not given) | 87 to 90 |
